Measurements taken from patent publication US9505709B2, “Compositions and methods relating to ionic salts of peptides” (Thetis Pharmaceuticals LLC, priority 2014, dated 2016).

Experiments:
[1] = Oral pharmacokinetics (oral gavage), plasma free EPA or free DHA; type: in vivo, Sprague-Dawley rats; conditions: rat
Experimental: Experiments via Oral Gavage: Oral pharmacokinetic parameters of TP-212 (Lysyl-Lysine Bis-EPA), TP-312 (Lysyl-Lysine Bis-DHA), EPA-EE, EPA FFA and DHA FFA were determined in Sprague-Dawley rats. EPA-EE is 97% pure ethyl ester form of eicosapentaenoic acid. It is the principal polyunsaturated fatty acid in Vascepa, an Omega-3 compound approved in the U.S. for the treatment of severe hypertriglyceridemia. EPA FFA is 97% pure free fatty acid form of eicosapentaenoic acid and DHA FFA is 98% pure free fatty acid DHA. EPA FFA and DHA FFA are the two principal poly-unsaturated fatty acids in Epanova, an Omega-3 compound approved in the U.S. for the treatment of severe hypertriglyceridemia. The subject drugs were administered by oral gavage as an aqueous solution in de-ionized water to 6 Sprague-Dawley rats per group (3 males and 3 females). Rats were dosed at 40 mg/kg. Blood samples were obtained from each rat by jugular vein catheter. Samples were collected at pre-dose and at 0.25, 0.5, 1, 2, 4, 8, 12 and 18 hours post dose. Blood samples were centrifuged to separate red blood cells and the resulting plasma samples were analyzed for free EPA or free DHA. Free EPA or […] extracted from rat plasma with hexane at acidic condition without hydrolysis. Detection was by MS-MS monitoring of negative ion for EPA or DHA. Calculated pharmacokinetic values are mean values from 6 rats for each study drug.
(§1) For all figures and tables, the data are adjusted as follows for comparative purposes. First, the actual plasma levels are baseline adjusted. Thus, for each study arm, the pre-dose level (time=0) is subtracted from the actual plasma levels at each time point, with negative values adjusted to zero. Second, these baseline adjusted values are further adjusted to be molar dose equivalent on a comparative basis among the study arms with respect to EPA or DHA payload (i.e., as if equal amounts of free fatty acid EPA or DHA are administered in each study arm).

[2] = Intravenous injection pharmacokinetics, plasma free EPA or free DHA; type: in vivo, Sprague-Dawley rats; conditions: rat
Experimental: Experiments via Intravenous Injection: TP-212 and TP-312 were administered by intravenous injection (20 mg/kg) to Sprague-Dawley rats (n=6/group—3 male and 3 female), and plasma was obtained from serial blood samples taken from each animal at scheduled times ([…]). Blood samples were centrifuged to separate red blood cells and the resulting plasma samples were analyzed for free EPA or free DHA. Free EPA or free DHA was extracted from rat plasma with hexane at acidic condition without hydrolysis. Detection was by MS-MS monitoring of negative ion for EPA or DHA. Calculated pharmacokinetic values are mean values from 6 rats for each study drug.
as §1

Balb/C mice = experiment: Ocular irritation after topical dosing to the cornea (hyperemia, squinting, discharge, lid swelling); type: in vivo; conditions: for Hyperemia: 3 μL drop in each eye four times daily for 3 days
Experimental: In an embodiment where the ophthalmic formulation is an aqueous formulation, it has been determined in mice that certain formulations can be administered to the surface of the eye without producing irritation that would make them unsuitable for such application. Irritation parameters of TP-211-1, TP-212-1, TP-311-1 and TP-312-1 related to hyperemia, squinting, and discharge were determined in Balb/C mice. Mice were dosed topically to the cornea using a calibrated micropipette, with a 3 μL drop of treatment in each eye four times daily for 3 consecutive days at various concentrations.
TP-211-1 is Lysyl-lysine EPA. TP-212-1 is Lysyl-lysine bis-EPA. TP-311-1 is Lysyl-lysine DHA. TP-312-1 is Lysyl-lysine bis-DHA. The study drugs were prepared using phosphate buffered saline (PBS) to reach target concentrations ranging from 0.1% to 1.0%.
The animals were monitored for scratching at the eye or any other abnormal behavior post-dose. Ocular exams were conducted on Days 1 and 3 with use of a Micron III camera system to take high resolution videos of the right eye of each animal Clinical signs including but not limited to hyperemia, discharge, lid swelling, and squinting were evaluated by trained personnel who was masked as to group assignment. Each clinical sign was graded on a scale of 0-4, with the exception of lid swelling which was graded on a scale of 0-2. Scores were averaged and are expressed as the mean±SEM for each group. Statistical significance was assessed between the treatment arms and the vehicle group. Any significance is noted by asterisks (*=p<0.05, **=p<0.01, ***=p<0.001).

[3] = Stability analysis by 1H NMR of samples exposed to air and light; conditions: ambient temperature
Experimental: Stability analysis was performed using 1H NMR (400 MHz) with acetic acid-d4 at various time point (typically days 1, 14, 30 and 60) using samples exposed to air and light at ambient temperature (clear vials with no caps).

[4] = oral gavage 40 mg/kg, molar dose equivalent, baseline adjusted
[5] = intravenous injection 20 mg/kg, molar dose equivalent, baseline adjusted

CC/C=C\C/C=C\C/C=C\C/C=C\C/C=C\CCCC(=O)O.CC/C=C\C/C=C\C/C=C\C/C=C\C/C=C\CCCC(=O)O.NCCCC[C@H](NC(=O)[C@@H](N)CCCCN)C(=O)O [Compound 2, (L,L) Lysyl-lysine bis-EPA]
Tmax (free EPA) ([1]; oral gavage 40 mg/kg): 30 min
Plasma level of free EPA ([1]; oral gavage 40 mg/kg, 0 h (pre-dose), molar dose equivalent, baseline adjusted): 0 ng/mL
Plasma level of free EPA ([1]; oral gavage 40 mg/kg, 0.25 h (15 min), molar dose equivalent, baseline adjusted): 300 ng/mL
Plasma level of free EPA ([1]; oral gavage 40 mg/kg, 0.5 h (30 min), molar dose equivalent, baseline adjusted): 9500 ng/mL
Plasma level of free EPA ([1]; oral gavage 40 mg/kg, 1 h (60 min), molar dose equivalent, baseline adjusted): 3900 ng/mL
Plasma level of free EPA ([1]; oral gavage 40 mg/kg, 2 h (120 min), molar dose equivalent, baseline adjusted): 3200 ng/mL
Plasma level of free EPA ([1]; oral gavage 40 mg/kg, 4 h (240 min), molar dose equivalent, baseline adjusted): 1500 ng/mL
Plasma level of free EPA ([1]; oral gavage 40 mg/kg, 8 h, molar dose equivalent, baseline adjusted): 600 ng/mL
Plasma level of free EPA ([1]; oral gavage 40 mg/kg, 12 h, molar dose equivalent, baseline adjusted): 0 ng/mL
Plasma level of free EPA ([1]; oral gavage 40 mg/kg, 18 h, molar dose equivalent, baseline adjusted): 0 ng/mL
AUC 0-1 hrs (free EPA) [1, 4]: 4600 ng·h/mL
AUC 0-4 hrs (free EPA) [1, 4]: 12800 ng·h/mL
AUC 0-18 hrs (free EPA) [1, 4]: 18300 ng·h/mL
Cmax (free EPA) [1, 4]: 9500 ng/mL
AUC over 18 hours (free EPA), times greater than EPA-EE ([1]; oral gavage): approximately 2.6 times
AUC over 18 hours (free EPA), times greater than EPA-FFA ([1]; oral gavage): ~1.8 times
Cmax (free EPA), times greater than EPA-EE ([1]; oral gavage): approximately 8.9 times
Cmax (free EPA), times greater than EPA-FFA ([1]; oral gavage): ~7.4 times
Tmax (free EPA) ([2]; intravenous injection 20 mg/kg): 1 min
Plasma level of free EPA ([2]; intravenous injection 20 mg/kg, 0 min, molar dose equivalent, baseline adjusted): 0 ng/mL
Plasma level of free EPA ([2]; intravenous injection 20 mg/kg, 1 min, molar dose equivalent, baseline adjusted): 34500 ng/mL
Plasma level of free EPA ([2]; intravenous injection 20 mg/kg, 5 min, molar dose equivalent, baseline adjusted): 6600 ng/mL
Plasma level of free EPA ([2]; intravenous injection 20 mg/kg, 10 min, molar dose equivalent, baseline adjusted): 6400 ng/mL
Plasma level of free EPA ([2]; intravenous injection 20 mg/kg, 15 min, molar dose equivalent, baseline adjusted): 11400 ng/mL
Plasma level of free EPA ([2]; intravenous injection 20 mg/kg, 30 min, molar dose equivalent, baseline adjusted): 8800 ng/mL
Plasma level of free EPA ([2]; intravenous injection 20 mg/kg, 60 min, molar dose equivalent, baseline adjusted): 4600 ng/mL
Plasma level of free EPA ([2]; intravenous injection 20 mg/kg, 120 min, molar dose equivalent, baseline adjusted): 2300 ng/mL
Plasma level of free EPA ([2]; intravenous injection 20 mg/kg, 240 min, molar dose equivalent, baseline adjusted): 1800 ng/mL
AUC 0-1 hrs (free EPA) [2, 5]: 8300 ng·h/mL
AUC 0-4 hrs (free EPA) [2, 5]: 15900 ng·h/mL
Cmax (free EPA) [2, 5]: 34500 ng/mL
AUC over 1 hour (free EPA), times greater than EPApo ([2]; intravenous vs oral gavage): ~13.4 times
AUC over 1 hour (free EPA), times greater than TP-212po ([2]; intravenous vs oral gavage): approximately 1.8 times
AUC over 4 hours (free EPA), times greater than EPApo ([2]; intravenous vs oral gavage): ~5.1 times
AUC over 4 hours (free EPA), times greater than TP-212po ([2]; intravenous vs oral gavage): approximately 1.2 times
Cmax (free EPA), times greater than EPA-FFApo ([2]; intravenous vs oral gavage): ~27 times
Cmax (free EPA), times greater than TP-212po ([2]; intravenous vs oral gavage): approximately 3.6 times
Hyperemia (Balb/C mice; 0.5% concentration in PBS): increase in hyperemia (but not squinting) after the first dose
Squinting (Balb/C mice; 0.5% concentration in PBS, topical to cornea): not squinting
Hyperemia (Balb/C mice; 1.0% concentration in PBS): increase in hyperemia (but not squinting) after the first dose
Squinting (Balb/C mice; 1.0% concentration in PBS, topical to cornea): not squinting
Irritation, overall conclusion (Balb/C mice; concentrations of less than 1.0%, topical to cornea, repeat dosing): may cause some initial irritation upon the very first installation, but the animals acclimated well to repeat dosing
Hyperemia at last dose / final evaluation (Balb/C mice; concentrations that showed an initial increase or all tested, last dose / final evaluation (Day 3)): returned to baseline levels by the final evaluation
Stability by NMR (amount of sample remaining relative to original sample) ([3]; Day 3): 1 (1 = >95%)
Stability by NMR (amount of sample remaining relative to original sample) ([3]; Day 14): 1 (1 = >95%)
Stability by NMR (amount of sample remaining relative to original sample) ([3]; Day 30): 1 (1 = >95%)
Stability by NMR (amount of sample remaining relative to original sample) ([3]; Day 60): 1 (1 = >95%)
